From PubChem BioAssay AID651563 (Sanford-Burnham Center for Chemical Genomics, 2012) come the findings set out here.

Usually IC50 stands for the point on the concentration scale where inhibition reaches its midpoint. The term pIC50 denotes −log10 of the IC50, conventionally taken in molar units.

pIC50: −log10 of the molar value. Values joined by “and” are separate entries in the source; they are usually repeats but may differ in a detail not shown here. Identical values can stand only once. Active and inactive are the calls of the source.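 Rule for the calls: active = compounds whose IC50 is 20 micromolar or lower, counted as confirmed SKN-1 reporter blockers; inactive = the rest.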

For this assay, the system named is C. elegans VP596 Pgst-4::GFP/RFP ratio, acrylamide, 24 h. As to the kind of experiment: C. elegans gst-4 reporter suppression, concentration series – whole organism, GFP/RFP fluorescence ratio, set 2, strain VP596, SKN-1 inhibitor project, dose response (AID 651563).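 Note: red signal is driven by the dop-3 promoter and serves as the normalizer.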
With `Cc1oc(-c2ccc(-c3ccccc3)cc2)nc1CN(C)C1CCOC1` (stereo unspecified), the IC50 is 20.6 µM (inactive). As to `Cc1ccc2nc(-c3ccc(NC(=S)NC4CC(C)(C)NC(C)(C)C4)cc3)sc2c1`, the pIC50 was 4.80. Take `O=[N+]([O-])c1ccc(COc2ccc(CN3CCCCC3)cc2)cc1`: the pIC50 was 5.05. Take `O=c1c2ccccc2ccc2ccccc12`: the IC50 was 33.8 µM (inactive). Still for that read-out and setting: the result for `Clc1ccc(OCCCc2nc(-c3ccncc3)no2)c(Cl)c1` reads 29.5 µM (inactive). For `O=C(/C=C/c1ccccc1)/C=C/c1ccccc1`, the pIC50 was 4.79. In the case of `Clc1ccc(-c2nnc(-c3ccccc3)o2)c(Cl)c1`, the pIC50 is 5.84.

As to `Cc1cc(OCc2cccc(Cl)c2)c(C)cc1CN1CCOCC1`, the pIC50 is 4.82. In the case of `Clc1ccc(-n2nnc(-c3cccnc3)n2)cc1Cl`, the IC50 is > 100 µM (inactive). With `CCOc1cc(CNC2CCCC2)cc(Cl)c1OCc1ccccc1`, the IC50 was 22.4 µM (inactive). In the case of `Clc1ccccc1-c1nnc(-c2ccccc2Cl)o1`, the pIC50 was 5.75. Turning to `Clc1ncc(CSc2ccccc2)s1`, the IC50 is > 100 µM (inactive). `O=C(/C=C/c1ccc(Cl)cc1Cl)Nc1ccc(CN2CCOCC2)cc1`: the IC50 was > 100 µM (inactive).

As to `Fc1ccc(-c2csc(-c3ccncc3)n2)cc1`, the negative logarithm of the IC50 (pIC50) was 5.23. Same read-out and setting: the figure for `O=C(Nc1nc(-c2ccc(Cl)s2)cs1)c1ccco1` is 4.81. For `Cc1nc2ccccc2cc1OCc1ccc(F)cc1`, the IC50 was 24 µM (inactive). As for `COc1cc(CNC(C)(C)CO)cc(Br)c1OCc1ccc(Cl)cc1`, the pIC50 was 4.71. As to `O=C(CC(O)(C(F)(F)F)C(F)(F)F)Nc1ccc(Cl)c(Cl)c1`, the IC50 is 27.9 µM (inactive).

Take `COc1ccc2c(c1)OC/C(=C/c1cccs1)C2=O`: the pIC50 was 4.77.

For the compound `C(=C\c1nnc(-c2cccs2)o1)/c1ccccc1`, the pIC50 is 4.80. Take `CC/C(=C\c1ccc(Cl)cc1)c1ccncc1`: the IC50 is 28.2 µM (inactive). Turning to `Fc1ccc(-n2nnc(-c3nccs3)n2)cc1`, the IC50 was 24.4 µM (inactive).

`COc1c(C(=O)Nc2nccs2)ccc2ccccc12`: the IC50 was 41.8 µM (inactive).

Regarding `O=C(/C=C/c1cccs1)c1ccc(Br)cc1`, the IC50 was 20.8 µM (inactive). `Fc1ccccc1-c1nc(-c2ccncc2)no1`: the IC50 was 38.6 µM (inactive).

With `c1ccc(-c2csc(Nc3ccccn3)n2)cc1`, the pIC50 was 4.77. Take `O=C(Oc1ccccc1)N1CCN(c2ccc(F)cc2)CC1`: the IC50 was > 100 µM (inactive).

As for `Clc1ccc(OCc2nc(-c3ccncc3)no2)c(Br)c1`, the IC50 was 31.2 µM (inactive). As for `Fc1ccccc1CSc1ccc(-c2ccco2)nn1`, the IC50 is > 100 µM (inactive). For `O=C(Nc1nc(-c2ccccc2)cs1)c1cccs1`, the IC50 was 21.9 µM (inactive). With `Clc1ccc(C=Cc2ccccn2)c(Cl)c1`, the pIC50 is 4.92. As to `c1csc(-c2nc(-c3ccncc3)no2)c1`, the IC50 is 36.1 µM (inactive). Turning to `Cc1ccc(Nc2nc(-c3cccs3)cs2)nc1`, the IC50 was 30.2 µM (inactive). As for `O=[N+]([O-])c1ccc2nc(N3CCCC3)sc2c1`, the IC50 is > 100 µM (inactive). For the compound `Cc1ccc(-c2nc(-c3ccncc3)no2)c(C)c1`, the IC50 was > 100 µM (inactive). Regarding `Clc1ccc(C#Cc2cccnc2)cc1`, the pIC50 was 4.71. For `CC(C)c1ccc(-c2nc3ccccc3s2)cc1`, the IC50 is > 100 µM (inactive). Consider `FCCCOc1ccc(-c2nccc(-c3ccccn3)n2)cc1`, for which the IC50 was 25.6 µM (inactive). On the same count and under the same terms, the figure for `CCCCCNC(=O)c1ccccc1SC` is 81.5 µM (inactive). As to `CC1=NN(c2ccccc2)C(=O)/C1=C\C=C1/N(C)c2ccccc2C1(C)C`, the pIC50 is 4.84. In the case of `Cc1ccc(C=Cc2ccccn2)cc1`, the IC50 was > 100 µM (inactive). Consider `Fc1ccc(Cn2nnc(-c3ccc(CN4CCOCC4)cc3)n2)cc1`, for which the pIC50 is 4.70.

For the compound `CCOC(=O)c1c(-c2ccc(-c3ccccc3)cc2)csc1NC(=O)CNCCN(C)C`, the pIC50 was 4.96. Regarding `Clc1ccc(Cn2cc(Br)cn2)cc1Cl`, the IC50 is 30.6 µM (inactive). For the compound `Cn1c(=O)c2c(-c3ccccc3)n(-c3ccc(N)cc3)cc2n(C)c1=O`, the IC50 was 23.5 µM (inactive).

For the compound `c1ccc(N2CCN(c3cnc4ccccc4n3)CC2)cc1`, the IC50 is > 100 µM (inactive). `Fc1ccc(-c2csc(Nc3ccccn3)n2)cc1`: the pIC50 was 5.15. `Fc1ccccc1OCCSc1nc2ccccc2o1`: the IC50 is 60.7 µM (inactive). Still for that read-out and setting: the result for `CCSc1nnc(-c2ccc(Cl)cc2Cl)o1` reads 58.5 µM (inactive). Turning to `CCOC(=O)Nc1nc(-c2ccc(F)cc2F)cs1`, the pIC50 was 4.74.

In the case of `CN(C)C(CNC(=O)CCc1nc2cc(Cl)ccc2n(Cc2ccccc2)c1=O)c1ccccc1` (stereo unspecified), the IC50 is 26.1 µM (inactive). In the case of `CSc1ccc(-c2cc(=O)c3ccccc3o2)cc1`, the pIC50 is 4.76. Consider `O=C(Nc1nccs1)c1ccc2ccccc2c1`, for which the IC50 is 23.8 µM (inactive). Regarding `Clc1ccc(-c2cc(CSc3ccccc3)on2)cc1`, the IC50 is > 100 µM (inactive). With `CSc1cccc(NC(=O)c2cccc3cccnc23)c1`, the pIC50 is 4.90. Consider `Clc1ccc2nc(-c3ccc(Br)s3)cn2c1`, for which the IC50 was 21.6 µM (inactive). Turning to `O=C(C=Cc1cccs1)c1ccc(Cl)s1`, the pIC50 was 4.75. On to `O=C(Nc1ccc(Cl)c(Cl)c1)c1ccco1`, for which the IC50 is 45.4 µM (inactive). Turning to `CCN(CC)c1ccc(/C=C2/C(=O)c3ccc(C(=O)O)cc3C2=O)cc1`, the pIC50 was 4.92. Still for that read-out and setting: the figure for `c1ccc(SCc2cc(-c3ccccc3)no2)cc1` is 4.89.

On to `O=C1/C(=C/c2cccs2)CCc2ccccc21`, for which the IC50 is 34.3 µM (inactive). With `CCN(CC)c1ccc(/C=C2\C(=O)c3ccc(C(=O)O)cc3C2=O)cc1`, the pIC50 was 4.91. With `Brc1ccc(-c2nnc(-c3cccnc3)o2)cc1`, the IC50 is > 100 µM (inactive). Consider `O=C(/C=C/Nc1ccc(F)cc1F)c1ccco1`, for which the IC50 is 22.7 µM (inactive). Still for that read-out and setting: the figure for `O=[N+]([O-])c1ccc(Nc2ccccc2)c2nonc12` is 49.6 µM (inactive). With `O=[N+]([O-])c1ccc(Nc2ccccc2)cc1`, the pIC50 was 4.91. For `Clc1ccc(Cn2nnc(-c3ccccc3)n2)cc1`, the IC50 is 20.9 µM (inactive). Take `CCCn1nc2cc(C(=O)NCc3ccc(OC(F)(F)F)cc3)ccc2c1OCC`: the IC50 was 25.4 µM (inactive). Turning to `O=C(NCc1ccncc1)c1ccc(-c2ccc(F)c(F)c2)c2ccoc12`, the IC50 is 29.8 µM (inactive). On to `C(=C\c1ccc2ccccc2n1)/c1ccccc1`, for which the IC50 was > 100 µM (inactive). On the same count and under the same terms, the figure for `Clc1ccc(-c2nnc(-c3ccccc3)o2)cn1` is > 100 µM (inactive); for `Clc1ccccc1-c1nc(-c2ccncc2)no1` it is 18.4 µM and > 100 µM (inactive). For the compound `O=C(Nc1ccc(CN2CCOCC2)cc1)c1cc2ccccc2o1`, the pIC50 was 4.76. Regarding `N#Cc1cncc(C#Cc2ccccc2)c1`, the IC50 is 31 µM (inactive).

Take `Brc1ccc(CSc2nnc(-c3ccco3)o2)cc1`: the pIC50 was 5.14.

As to `C=CCSc1ncc(-c2ccccc2)cn1`, the IC50 was 27.2 µM (inactive).
